The source of these data is US20070037887A1, “Blockade of mtor to prevent a hormonal adaptive response” (University of Virginia Patent Foundation, priority 2003, published 2007).

Experiment [1] deals with LTED cells. Briefly: Growth of LTED cells (cell number). The class given is cell-based, human. The procedure:
FIG. 3 represents the effect of FTS on the growth of MCF-7, LTED, and MCF-10A cells. Sixty thousand cells were plated into each well of 6-well plates. Two days later, the cells were treated in triplicate for five days with FTS at indicated concentrations. The results (mean±S.E.) are expressed as percentage of the vehicle control.
FIG. 4 represents the effect of FTS on E2 stimulated growth of MCF-7 and LTED cells. Thirty thousand cells were plated into each well of 6-well plates. Two days later, the cells were re-fed with IMEM containing 5% DCC-FBS. After another two days, cells were treated in triplicate with estradiol (10^−10 M) plus various concentrations of FTS for five days. In LTED cells, fulvestrant (10^−9 M) was included in all wells to block the effect of residual estrogen in the culture. The results (mean±S.E.) are expressed as percentage of cell number from the wells containing E2.
The effect of FTS on growth of breast cancer cells was examined in two different cell lines: MCF-7 wild type cells which represent a model for untreated breast cancer and LTED cells as a model of cells adapting to endocrine treatment. Cells were grown in their culture media and treated with FTS for five days. […] The effect of FTS on E2-stimulated growth of MCF-7 and LTED cells was the examined. […]

Experiment [2] addresses T1, mTOR-raptor complex (Homo sapiens, UniProt P42345+Q8N122).
T1 construct: expressed in transfected cells; host or cells: 293T
Briefly: Coimmunoprecipitation of raptor with mTOR from 293T cells incubated with compound. The class given is cell-based. The settings on record: nontransfected 293T cells. The procedure:
FIG. 11A & 11B represent data showing FTS inhibits PHAS-I phosphorylation and promotes dissociation of the mTOR-raptor complex in 293T cells. 293T cells were transfected with pcDNA3AU1-mTOR, pcDNA33HARaptor, pcDNA33HA-mLST8, and pCMV-Tag3APHAS-I (FIG. 11A). After 18 h the cells were incubated for 1 h with increasing concentrations of FTS before extracts were prepared. A sample of each extract was subjected to SDS-PAGE and immunoblotted to detect PHAS-I or PThr^36/45. AU1-mTOR was also immunoprecipitated from each extract, and immune complexes were subjected to SDSPAGE and immunoblotted with mTAb2, to detect mTOR, and with anti-HA antibodies, to detect HA-mLST8 and HA-raptor. Nontransfected 293T cells were incubated with increasing concentrations of FTS for 1 h before extracts were prepared. mTOR was immunoprecipitated with mTAb1, and samples were subjected to SDS-PAGE.
FIGS. 12A & 12B represent data showing the effects of incubating cells with increasing concentrations of FTS and GTS on mTOR activity and mTOR association with raptor and mLST8. AU1-mTOR, HA-raptor, and HAmLST8 were overexpressed in 293T cells. The cells were then incubated for 1 h with increasing concentrations of FTS (●, ▴, ▪) or GTS (∘, Δ, □) before extracts were prepared. Immunoprecipitations were then conducted with anti-AU1 antibodies. mTOR kinase activity (●, ∘) was determined by measuring ^32P incorporation into [His^6]PHAS-I in immune complex kinases assays performed with [γ-^32P]ATP. The relative amounts of HA-raptor (▴, Δ) and HA-mLST8 (▪, □) that coimmunoprecipitated with AU1-mTOR were determined after immunoblotting with anti-HA antibodies. The results (mean values±S.E. from 3 experiments) are expressed as percentages of the mTOR activity (FIG. 12A) or coimmunoprecipitating proteins (FIG. 12B) from samples incubated without FTS or GTS, and have been corrected for the amounts of AU1-mTOR immunoprecipitated.
To investigate further the inhibitory effects of FTS on mTOR signaling, the effect of the drug on the association of mTOR, raptor, and mLST8 was determined. AU1-mTOR and HA-tagged forms of raptor and mLST8 were overexpressed in 293T cells, which were then incubated with increasing concentrations of FTS before AU1-mTOR was immunoprecipitated with anti-AU1 antibodies. Immunoblots were prepared with anti-HA antibodies to assess the relative amounts of HA-raptor and HA-mLST8 that coimmunoprecipitated with AU 1-mTOR (FIG. 11A).
Results obtained with overexpressed proteins are not necessarily representative of responses of endogenous proteins. Therefore, experiments were conducted to investigate the effect FTS on the endogenous TORC1 in nontransfected cells. […]

Turning to `CC(C)=CCC/C(C)=C/CC/C(C)=C/CSc1ccccc1C(=O)O` [FTS, farnesylthiosalicylic acid], in experiment [1] (E2 10^−10 M in the presence of fulvestrant 10^−9 M), the E2-stimulated growth result is given as “inhibited”. The basal growth result in experiment [1] (culture media, five days) is recorded as “dose-dependently inhibited”. For the same compound, the “amount of endogenous raptor that coimmunoprecipitated with mTOR” value in experiment [2] is given as “markedly decreased”.
